Our source for the Activity, fold change (FC) and EC1.5 values is ChEMBL document CHEMBL4007386, “Design, synthesis of allosteric peptide activator for human SIRT1 and its biological evaluation in cellular model of Alzheimer's disease” (Eur J Med Chem, 2017).

Experiment [1] concerns the target T1, NAD-dependent protein deacetylase sirtuin-1 (Homo sapiens) (UniProt Q96EB6).
T1 sequence (whole entry): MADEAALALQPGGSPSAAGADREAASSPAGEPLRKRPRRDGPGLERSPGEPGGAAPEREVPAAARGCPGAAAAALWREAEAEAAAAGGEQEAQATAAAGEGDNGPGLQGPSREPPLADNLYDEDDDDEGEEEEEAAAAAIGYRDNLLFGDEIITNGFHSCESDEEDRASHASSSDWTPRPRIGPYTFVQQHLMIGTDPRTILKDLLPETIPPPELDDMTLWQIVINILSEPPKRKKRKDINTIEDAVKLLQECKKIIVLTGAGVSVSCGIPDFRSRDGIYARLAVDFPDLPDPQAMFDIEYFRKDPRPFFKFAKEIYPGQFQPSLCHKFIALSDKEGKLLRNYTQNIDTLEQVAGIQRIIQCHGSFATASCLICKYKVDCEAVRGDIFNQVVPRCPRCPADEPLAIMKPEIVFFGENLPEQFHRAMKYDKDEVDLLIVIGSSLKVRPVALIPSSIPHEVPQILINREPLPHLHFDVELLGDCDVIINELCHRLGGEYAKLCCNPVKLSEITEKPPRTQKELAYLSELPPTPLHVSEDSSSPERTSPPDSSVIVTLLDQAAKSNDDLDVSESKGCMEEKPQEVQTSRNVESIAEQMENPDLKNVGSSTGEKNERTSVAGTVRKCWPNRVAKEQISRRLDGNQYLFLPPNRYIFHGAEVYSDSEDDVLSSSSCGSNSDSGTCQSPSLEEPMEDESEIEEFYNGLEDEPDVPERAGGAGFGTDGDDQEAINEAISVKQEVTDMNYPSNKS
Briefly: Activation of SIRT1 in Alzheimer's disease patient serum assessed as increase in deacetylation of SIRT1 substrate peptide at 5 mM preincubated for 1 hr followed by substrate addition measured after 1 hr by fluorescence spectroscopic method.

The target of experiment [2] is T1, NAD-dependent protein deacetylase sirtuin-1 (Homo sapiens). Briefly: Activation of SIRT1 (unknown origin) expressed in bacterial expression system assessed as increase in enzyme activity at 100 uM using Fluorophore labeled-Arg-His-Lys-Lys (Ac) as substrate incubated for 30 mins in presence of NAD+ by fluorimetric method relative to control.
For experiment [3] the target is unchanged. Briefly: Activation of SIRT1 in Alzheimer's disease patient serum assessed as increase in deacetylation of SIRT1 substrate peptide at 1.5 to 3 mM preincubated for 1 hr followed by substrate addition measured after 1 hr by fluorescence spectroscopic method relative to control.
For experiment [4], the target named is T2, NAD-dependent protein deacetylase sirtuin-2 (Homo sapiens) (UniProt Q8IXJ6).
T2 sequence (whole entry): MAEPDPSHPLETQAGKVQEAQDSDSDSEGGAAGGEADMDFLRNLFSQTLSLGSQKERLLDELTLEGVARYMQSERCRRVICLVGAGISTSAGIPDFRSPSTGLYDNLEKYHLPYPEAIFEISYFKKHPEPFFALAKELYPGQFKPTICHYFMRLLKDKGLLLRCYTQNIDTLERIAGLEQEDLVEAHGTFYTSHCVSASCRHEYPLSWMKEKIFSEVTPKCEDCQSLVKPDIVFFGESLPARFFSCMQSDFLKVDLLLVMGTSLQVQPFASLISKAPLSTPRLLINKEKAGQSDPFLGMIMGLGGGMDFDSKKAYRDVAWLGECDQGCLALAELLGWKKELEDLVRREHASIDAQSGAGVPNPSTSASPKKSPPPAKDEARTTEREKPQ
Briefly: Activity at SIRT2 in Alzheimer's disease patient serum assessed as effect on deacetylation of SIRT2 substrate peptide at 1.5 to 3 mM preincubated for 1 hr followed by substrate addition measured after 1 hr by fluorescence spectroscopic method.

Experiment [5] concerns the target T1, NAD-dependent protein deacetylase sirtuin-1 (Homo sapiens). Briefly: Activation of SIRT1 in human IMR32 cells assessed as protection against amyloid beta (25 to 35)-induced toxicity by measuring cell viability at 20 uM after 48 hrs by MTT assay (reference value: 56.3 +/- 1.2%). The class given is cell-based. (Tetrazolium assays rely on reduction of a dye to a coloured formazan, in cell work by metabolically active cells.)

The target is the same in experiment [6]. Briefly: Allosteric activation of SIRT1 in human IMR32 cells assessed as decrease in acetylation level of K382 residue of p53 at 160 uM after 48 hrs in presence of SIRT1 inhibitor nicotinamide by Western blot method. The class given is cell-based. For orientation: Immunoblotting shows a protein as a band on a membrane.
Experiment [7] shares this target. Briefly: Activation of SIRT1 (unknown origin) expressed in bacterial expression system assessed as increase in enzyme activity at 105 uM using Fluorophore labeled-Arg-His-Lys-Lys (Ac) as substrate incubated for 30 mins in presence of NAD+ by fluorimetric method relative to control.
Experiment [8] has the same target. Briefly: Activation of SIRT1 in human IMR32 cells assessed as protection against amyloid beta (25 to 35)-induced toxicity by measuring cell viability at 80 uM after 48 hrs by MTT assay (reference value: 56.3 +/- 1.2%). The class given is cell-based.
Experiment [9] shares this target. Briefly: Activation of SIRT1 (unknown origin) expressed in bacterial expression system assessed as increase in enzyme activity using Fluorophore labeled-Arg-His-Lys-Lys (Ac) as substrate incubated for 30 mins in presence of NAD+ by fluorimetric method.
For experiment [10] the target is unchanged. Briefly: Activation of SIRT1 in human IMR32 cells assessed as protection against amyloid beta (25 to 35)-induced toxicity by measuring cell viability at 40 uM after 48 hrs by MTT assay (reference value: 56.3 +/- 1.2%). The class given is cell-based.
Experiment [11] has the same target. Briefly: Allosteric activation of SIRT1 in human IMR32 cells assessed as decrease in acetylation level of K382 residue of p53 after 48 hrs by Western blot method. The class given is cell-based.
Experiment [12] has the same target. Briefly: Activation of SIRT1 in human IMR32 cells assessed as protection against amyloid beta (25 to 35)-induced toxicity by measuring cell viability at 10 uM after 48 hrs by MTT assay (reference value: 56.3 +/- 1.2%). The class given is cell-based.
For experiment [13] the target is unchanged. Briefly: Activation of SIRT1 (unknown origin) expressed in bacterial expression system assessed as increase in enzyme activity at >145 uM using Fluorophore labeled-Arg-His-Lys-Lys (Ac) as substrate incubated for 30 mins in presence of NAD+ by fluorimetric method.

The source made the active and inactive calls. The calls are words filed in the database; no cut-off is given here. Where a SMILES comes first, the peptide text is derived from it.

On to `NC(=O)c1cccnc1`, for which, in [1], the result was inactive.

With `CC(C)C[C@H](NC(=O)[C@@H](N)CC(N)=O)C(=O)N[C@@H](CCCNC(=N)N)C(=O)O` (H-Asn-Leu-Arg-OH), in experiment [2], the Activity stood at 6%.

Turning to `N=C(N)NCCC[C@H](NC(=O)[C@H](Cc1c[nH]c2ccccc12)NC(=O)[C@@H](N)CC(N)=O)C(=O)O` (H-Asn-Trp-Arg-OH), the Activity in experiment [2] is 24%.

Regarding `N=C(N)NCCC[C@H](NC(=O)[C@H](Cc1ccc(O)cc1)NC(=O)[C@@H](N)CC(N)=O)C(=O)O` (H-Asn-Tyr-Arg-OH), the Activity in experiment [2] is 4%.

Take `N=C(N)NCCC[C@H](NC(=O)[C@H](Cc1c[nH]c2ccccc12)NC(=O)[C@@H](N)CS)C(=O)O` (H-Cys-Trp-Arg-OH): the Activity in experiment [3] was 21.2%; in experiment [5], 68%; in experiment [8] it was 83.4%; in experiment [10] it was 79.8%; in [11] it was “Dose-dependent effect”; in experiment [12], 57.1%. The Activity in [2] stood at 97%. Also, the result in [4] and in [6] was inactive. For the same compound, in [7], the fold change (FC) came out at 2. Besides, in [9], the EC1.5 was determined as 55 µM. Also, the outcome in [13] was Active.

With `N=C(N)NCCC[C@H](NC(=O)[C@H](Cc1ccc(O)cc1)NC(=O)[C@@H](N)CCC(N)=O)C(=O)O` (H-Gln-Tyr-Arg-OH), the Activity in experiment [2] came to 12%.

With `N[C@@H](Cc1cnc[nH]1)C(=O)N[C@@H](CCC(=O)O)C(=O)N[C@@H](Cc1ccc(O)cc1)C(=O)O` (H-His-Glu-Tyr-OH), in [2], the Activity came out at 15%.

On to `N=C(N)NCCC[C@H](NC(=O)[C@@H]1CCCN1C(=O)[C@@H](N)Cc1cnc[nH]1)C(=O)O` (H-His-Pro-Arg-OH), for which, in [2], the Activity is -10%.

Take `N=C(N)NCCC[C@H](NC(=O)[C@H](Cc1ccc(O)cc1)NC(=O)[C@@H](N)Cc1cnc[nH]1)C(=O)O` (H-His-Tyr-Arg-OH): the Activity in experiment [2] is 19%.

`CC(C)[C@H](NC(=O)[C@@H](N)Cc1cnc[nH]1)C(=O)N[C@@H](CCCNC(=N)N)C(=O)O` (H-His-Val-Arg-OH): in [2], the Activity is 5%.

For `N=C(N)NCCC[C@H](NC(=O)[C@H](Cc1c[nH]c2ccccc12)NC(=O)[C@@H](N)Cc1ccccc1)C(=O)O` (H-Phe-Trp-Arg-OH), in experiment [2], the Activity is 28%.
